Measured values reported in US10800776B2, “Fluorine-containing triazolopyridine, and manufacturing method, pharmaceutical composition, and application thereof” (SHANGHAI INSTITUTE OF MATERIA MEDICA, CHINESE ACADEMY OF …, priority 2016, dated 2020).

Assays:
[1] = system: ICR mice; test: Mouse swimming depression test; type: in vivo; settings: for non-movement time (%) Mean ± SEM: positive control, 10 mg/kg, intraperitoneal, 0.5 hours before test
Experimental: Experiment objectives: to observe the effect of the test compound on the depressive status of mice
Experimental animals: ICR mice, 20-28 g, both male and female
Experimental equipment: plexiglass tube: cylindrical, 25 cm high, 15 cm inner diameter
Sample treatment: The test compounds were ground with 1% CMC (sodium carboxymethyl cellulose) to prepare a homogeneous solution. In vivo dose was 5 mg/kg, 10 mg/kg and 20 mg/kg, the compound was orally administrated at 0.1 ml/10 g volume/body weight. Positive control drugs (amitriptyline and fluoxetine) were dissolved with 0.9% saline, in vivo dose was 10 mg/kg, intraperitoneal injected at 0.1 ml/10 g volume/body weight. (Note: mice were given the compound after fasted for 8 hours without water-fasted.)
Experimental principle: The mouse is placed in a limited space which can not escape to swim, thus inducing animals to non-movement state which reflects the animal's desperate behavior.
Experimental Methods: mice were grouped randomly, 15 minutes swimming depression was modeled at the first day, and equivalent mice were selected. The second day of the test, 1 hour after the animals were orally administered the compound (0.5 hours after intraperitoneal injection) and then the animals were put in water to record the non-movement time in the later 4 min of 6 min.

[2] = target: hERG potassium channel (Homo sapiens (Human), UniProt Q12809); test: hERG potassium channel toxicity assay (hERG patch clamp); type: cell-based; settings: for IC50: hERG patch clamp; for inhibition at 40 µM: at maximum concentration 40 μM
Sequence of hERG potassium channel (Q12809 whole entry): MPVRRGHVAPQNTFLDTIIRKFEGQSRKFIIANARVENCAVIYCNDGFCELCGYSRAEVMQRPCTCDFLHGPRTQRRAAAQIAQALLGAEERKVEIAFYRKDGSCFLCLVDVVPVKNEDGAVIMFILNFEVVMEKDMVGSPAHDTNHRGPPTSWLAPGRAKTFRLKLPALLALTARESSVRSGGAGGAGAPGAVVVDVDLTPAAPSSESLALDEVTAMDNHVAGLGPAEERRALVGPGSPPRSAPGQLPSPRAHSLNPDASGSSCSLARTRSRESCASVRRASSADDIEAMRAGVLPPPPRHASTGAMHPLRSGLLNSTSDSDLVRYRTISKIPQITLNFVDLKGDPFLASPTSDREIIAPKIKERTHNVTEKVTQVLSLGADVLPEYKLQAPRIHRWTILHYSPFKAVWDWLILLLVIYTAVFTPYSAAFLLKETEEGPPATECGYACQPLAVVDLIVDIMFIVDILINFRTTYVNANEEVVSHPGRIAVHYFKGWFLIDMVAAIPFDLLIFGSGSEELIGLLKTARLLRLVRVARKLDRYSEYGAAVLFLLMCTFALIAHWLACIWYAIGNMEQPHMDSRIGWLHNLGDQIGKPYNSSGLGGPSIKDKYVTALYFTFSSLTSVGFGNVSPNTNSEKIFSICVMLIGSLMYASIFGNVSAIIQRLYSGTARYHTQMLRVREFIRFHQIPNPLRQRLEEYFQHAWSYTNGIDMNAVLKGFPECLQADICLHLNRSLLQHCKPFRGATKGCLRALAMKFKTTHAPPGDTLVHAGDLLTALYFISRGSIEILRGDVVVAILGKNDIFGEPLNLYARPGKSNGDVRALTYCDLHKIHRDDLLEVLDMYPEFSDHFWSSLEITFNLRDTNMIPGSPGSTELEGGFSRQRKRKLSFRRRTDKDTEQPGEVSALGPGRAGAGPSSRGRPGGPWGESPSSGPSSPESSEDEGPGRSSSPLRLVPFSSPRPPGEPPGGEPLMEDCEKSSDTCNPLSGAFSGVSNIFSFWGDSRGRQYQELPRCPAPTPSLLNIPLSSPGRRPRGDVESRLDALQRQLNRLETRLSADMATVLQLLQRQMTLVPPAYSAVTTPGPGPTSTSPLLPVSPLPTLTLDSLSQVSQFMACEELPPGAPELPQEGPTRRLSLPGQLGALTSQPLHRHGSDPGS
Experimental: Experimental method: hERG patch clamp detection method
Experimental procedure: Compound preparation: the stock solution of a compound was diluted with extracellular fluid, 2 μL of the compound stock solution was added to 998 μL extracellular fluid, and then serially diluted 5 times in an extracellular fluid containing 0.2% DMSO to obtain the final concentration to be tested.

[3] = target: mGluR2 (Homo sapiens (Human), UniProt Q14416); test: In vitro activity test for mGluR2 (HDB Fluo-8 calcium fluorescence, HEK/mGluR2 cell line); type: cell-based
Sequence of mGluR2 (Q14416 19-872): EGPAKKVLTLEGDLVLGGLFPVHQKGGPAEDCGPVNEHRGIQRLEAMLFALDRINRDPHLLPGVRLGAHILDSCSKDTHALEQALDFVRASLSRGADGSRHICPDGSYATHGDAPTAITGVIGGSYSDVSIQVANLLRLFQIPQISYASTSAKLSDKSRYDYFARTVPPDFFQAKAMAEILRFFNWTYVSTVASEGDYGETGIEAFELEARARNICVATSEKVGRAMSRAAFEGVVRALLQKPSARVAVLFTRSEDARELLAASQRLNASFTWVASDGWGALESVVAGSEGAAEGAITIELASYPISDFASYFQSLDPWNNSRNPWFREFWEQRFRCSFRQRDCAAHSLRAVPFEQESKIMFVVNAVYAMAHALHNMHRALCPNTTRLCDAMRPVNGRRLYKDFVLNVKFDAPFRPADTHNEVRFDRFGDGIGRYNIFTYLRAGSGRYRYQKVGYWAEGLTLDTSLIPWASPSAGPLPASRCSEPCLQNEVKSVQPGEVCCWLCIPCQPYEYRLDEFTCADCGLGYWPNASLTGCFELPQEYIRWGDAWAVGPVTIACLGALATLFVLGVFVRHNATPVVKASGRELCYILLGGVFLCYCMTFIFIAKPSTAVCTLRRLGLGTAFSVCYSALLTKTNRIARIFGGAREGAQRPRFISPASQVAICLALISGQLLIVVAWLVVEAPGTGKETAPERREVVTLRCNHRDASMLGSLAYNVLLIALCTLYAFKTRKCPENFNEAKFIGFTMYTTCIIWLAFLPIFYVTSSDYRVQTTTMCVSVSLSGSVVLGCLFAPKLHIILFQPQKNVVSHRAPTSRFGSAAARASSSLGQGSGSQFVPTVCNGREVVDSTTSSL
Text: Experimental materials: HEK/mGluR2 cell line (human […] transfected HEK cell line), DMEM (FBS) medium, positive control LY487379 (purchased from sigma; CAS: to 352317-17-1)
Experimental instrument: FLIPR Tetra real-time fluorescence imaging analysis system
Experimental method: HDB Fluo-8 calcium fluorescence detection method
Experimental principle: HDB Fluo-8 calcium ion fluorescence detection method is a fast, simple and reliable fluorescence detection method of intracellular calcium concentration changes. The Fluo 8-AM fluorescent dye is an acetyl methyl ester derivative of Fluo 8 which can easily penetrate into the cell membrane by culture. The fluorescent dye in the cell will be hydrolyzed by intracellular esterase, the resulting Fluo 8 as a polar molecule, cannot easily pass through the lipid bimolecular membrane, and will be retained in the cell, and combine with calcium (Ca^2+) to produce fluoresces.
Cells expressing GPCR receptor protein (mGluR2) were first calibrated with a calcium ion sensitive fluorescent probe and then stimulated with the compound. After stimulation, the receptor activates the calcium ion mobilization, and the fluorescent probe captures the calcium ion to induce the fluorescence signal. The signal can be read by a fluoroscopy plate. The fluorescent plate reader contains a sample addition for compound addition, thus enabling the change of the fluorescence value of the compound be read in real time.

[4] = system: C57BL/6 mice; test: Mouse open field experiment; type: in vivo
Experimental: Experiment objectives: to observe the anti-anxiety effect of the test compound on the mice by open field experiment.
Experimental animals: male C57BL/6 mice, 10 weeks old, purchased from Beijing Huafukang Biotechnology Co., Ltd.
Animal rearing: The temperature in the animal room was maintained at 20-25° C., the humidity was maintained at 40-70%, and the photoperiod was 12 hours light and 12 hours dark. During feeding, the mice were housed in standard mouse cages, with colored labels on each cage clearly indicating the item number, and the basic information such as the responsible person, group, animal number and animal gender. All animals were given free access to pure water and standard certified rodent feed. Before the start of the experiment, the experimental animals were adapted to the feeding environment for at least one week.
The compound to be tested, intraperitoneally administered, 30 mg/kg.
Experimental principle: Based on the instincts of rodents tending to avoid light and fear of exploring open fields. When the experimental animals were first placed in the open field, the central area was a potential threat to the animals, while the peripheral area was relatively safe, and rats and mice were more likely to move along the perimeter of the field. Therefore, if the animal is of high anxiety level, it tends to stay in the peripheral area. Conversely, the number and time of exploration in the central area will increase.
Experimental grouping and administration: Experimental animals were randomly divided into 5 groups as follows:
During the 30-minute test period, the total distance traveled by the experimental animals, the central area dwell time, and the percentage of the central area travel distance will be detected and recorded.

[5] = human, hERG, read-out: Inhibition rate (%)
[6] = 30 mg/kg i.p., 1 hour before, 30-minute test

Structure (SMILES): CN(C)CCC=C1c2ccccc2CCc2ccccc21 [Amitriptyline, reference compound]
- "no movement time" of swimming in mice (in words) ([1]; mouse, in vivo): significantly improved
- non-movement time (%) Mean ± SEM [1]: 5.32 ± 2.08 %

Structure (SMILES): COc1cc(N)c(Cl)cc1C(=O)NC1CCN(CCCOc2ccc(F)cc2)CC1OC (stereo not drawn) [Cisapride, reference compound]
- inhibition at 3 µM ([2]; human, hERG, positive compound, maximum test concentration 3 μM, read-out: Inhibition rate (%)): 96.6%

Structure (SMILES): Cc1cccc(-c2ccn3c(CC4CC4(F)F)nnc3c2)c1 (stereo not drawn) [Compound 10, 3-((2,2-difluorocyclopropyl)methyl)-7-(m-tolyl)-[1,2,4]triazole [4,3-a]pyridine]
- EC50 [3]: 143 nM
- IC50 [2]: > 40000 nM
- inhibition at 40 µM [2, 5]: 38.1%

Structure (SMILES): Fc1cccc(-c2ccn3c(CC4CC4(F)F)nnc3c2)c1 (stereo not drawn) [Compound 11, 3-((2,2-Difluorocyclopropyl)methyl)-7-(3-fluorophenyl)-[1,2,4]triazole [4,3-a]pyridine]
- EC50 [3]: 704 nM
- IC50 [2]: > 40000 nM
- inhibition at 40 µM [2, 5]: 45.9%

Structure (SMILES): Fc1ccc(-c2ccn3c(CC4CC4(F)F)nnc3c2)cc1 (stereo not drawn) [Compound 13, 3-((2,2-difluorocyclopropyl)methyl)-7-(4-fluorophenyl)-[1,2,4]triazole [4,3-a]pyridine]
- EC50 [3]: 381 nM
- IC50 [2]: 31900 nM
- inhibition at 40 µM [2, 5]: 52.8%

Structure (SMILES): CC(C)(O)c1ccc(-c2ccn3c(CC4CC4(F)F)nnc3c2)cc1 (stereo not drawn) [Compound 21, 2-(4-(3-((2,2-difluorocyclopropyl)methyl)-[1,2,4]triazole[4,3-a]pyridin-7-yl)phenyl)propan-2-ol]
- EC50 [3]: 226 nM
- IC50 [2]: 31900 nM
- inhibition at 40 µM [2, 5]: 52.8%

Structure (SMILES): COc1ccc(-c2ccn3c(CC4CC4(F)F)nnc3c2)cc1F (stereo not drawn) [Compound 23, 3-((2,2-difluorocyclopropyl)methyl)-7-(3-fluoro-4-methoxyphenyl)-[1,2,4] triazole[4,3-a]pyridine]
- EC50 [3]: 849 nM
- IC50 [2]: > 40000 nM
- inhibition at 40 µM [2, 5]: 46%

Structure (SMILES): Cc1cc(F)ccc1-c1ccn2c(CC3CC3(F)F)nnc2c1 (stereo not drawn) [Compound 26, 3-((2,2-difluorocyclopropyl)methyl)-7-(4-fluoro-2-methylphenyl)-[1,2,4] triazole[4,3-a]pyridine]
- EC50 [3]: 781 nM
- IC50 [2]: > 40000 nM
- inhibition at 40 µM [2, 5]: 49.4%

Structure (SMILES): Cc1cc(-c2ccn3c(CC4CC4(F)F)nnc3c2)ccc1F (stereo not drawn) [Compound 27, 3-((2,2-difluorocyclopropyl)methyl)-7-(4-fluoro-3-methylphenyl)-[1,2,4] triazole[4,3-a]pyridine]
- EC50 [3]: 868 nM
- IC50 [2]: > 40000 nM
- inhibition at 40 µM [2, 5]: 49.9%

Structure (SMILES): COC(=O)c1ccc(-c2ccn3c(CC4CC4(F)F)nnc3c2)c(F)c1 (stereo not drawn) [Compound 29, Methyl 4-(3-((2,2-difluorocyclopropyl)methyl)-[1,2,4]triazolo[4,3-a]pyridin-7-yl)-3-fluorobenzonate]
- EC50 [3]: 541 nM
- IC50 [2]: 17300 nM
- inhibition at 40 µM [2, 5]: 62.4%

Structure (SMILES): FC1(F)CC1Cc1nnc2cc(-c3ccc4c(c3)CCO4)ccn12 (stereo not drawn) [Compound 31, 3-((2,2-difluorocyclopropyl)methyl)-7-(2,3-benzodihydrofuran-5-yl)-[1,2,4]triazole[4,3-a]pyridine]
- EC50 [3]: 368 nM
- IC50 [2]: > 40000 nM
- inhibition at 40 µM [2, 5]: 48.1%

Structure (SMILES): FC1(F)CC1Cc1nnc2cc(-c3cccc4c3OCC4)ccn12 (stereo not drawn) [Compound 32, 3-((2,2-difluorocyclopropyl)methyl)-7-(2,3-benzodihydrofuran-7-yl)-[1,2,4]triazole[4,3-a]pyridine]
- EC50 [3]: 825 nM
- IC50 [2]: > 40000 nM
- inhibition at 40 µM [2, 5]: 51%

Structure (SMILES): FC1(F)CC1Cc1nnc2cc(-c3cccc4cccnc34)ccn12 (stereo not drawn) [Compound 34, 8-(3-((2,2-difluorocyclopropyl)methyl)-[1,2,4]triazole[4,3-a]pyridin-7-yl)quinoline]
- EC50 [3]: 612 nM
- IC50 [2]: > 40000 nM
- inhibition at 40 µM [2, 5]: 36%

Structure (SMILES): FC1(F)CC1Cc1nnc2cc(-c3ccc4c(c3)OCO4)ccn12 (stereo not drawn) [Compound 35, 7-(Benzo[d][1,3]dioxol-5-yl)-3-((2,2-difluorocyclopropyl)methyl)-[1,2,4]triazole [4,3-a]pyridine]
- EC50 [3]: 108 nM
- IC50 [2]: > 40000 nM
- inhibition at 40 µM [2, 5]: 40%
- Central area dwell time (s) Mean ± SEM [4, 6]: 102.6 ± 20.8 s
- Central area traveling distance percentage (%) Mean ± SEM [4, 6]: 15.41 ± 1.99%
- Total moving distance (cm) Mean ± SEM [4, 6]: 3491.2 ± 650.6 cm

Structure (SMILES): Cc1cccc(-c2ccn3c(CC4CC4(F)F)nnc3c2Cl)c1 (stereo not drawn) [Compound 36, 8-chloro-3-((2,2-difluorocyclopropyl)methyl)-7-(m-tolyl)-[1,2,4] triazole[4,3-a]pyridine]
- EC50 [3]: 130 nM
- IC50 [2]: > 40000 nM
- inhibition at 40 µM [2, 5]: 48.9%

Structure (SMILES): Fc1cccc(-c2ccn3c(CC4CC4(F)F)nnc3c2Cl)c1 (stereo not drawn) [Compound 37, 8-chloro-3-((2,2-difluorocyclopropyl)methyl)-7-(3-fluorophenyl)-[1,2,4] triazole[4,3-a]pyridine]
- EC50 [3]: 190 nM
- IC50 [2]: 15000 nM
- inhibition at 40 µM [2, 5]: 57%

Structure (SMILES): Cc1cc(F)ccc1-c1ccn2c(CC3CC3(F)F)nnc2c1Cl (stereo not drawn) [Compound 41, 8-chloro-3-((2,2-difluorocyclopropyl)methyl)-7-(4-fluoro-2-methylphenyl)-[1,2,4]triazole[4,3-a]pyridine]
- EC50 [3]: 856 nM
- IC50 [2]: 11200 nM
- inhibition at 40 µM [2, 5]: 80.1%

Structure (SMILES): COc1ccc(-c2ccn3c(CC4CC4(F)F)nnc3c2Cl)cc1F (stereo not drawn) [Compound 44, 8-chloro-3-((2,2-difluorocyclopropyl)methyl)-7-(3-fluoro-4-methoxyphenyl)-[1,2,4]triazole[4,3-a]pyridine]
- EC50 [3]: 118 nM
- IC50 [2]: 16100 nM
- inhibition at 40 µM [2, 5]: 64.5%

Structure (SMILES): COC(=O)c1ccc(-c2ccn3c(CC4CC4(F)F)nnc3c2Cl)c(Cl)c1 (stereo not drawn) [Compound 46, Methyl 3-Chloro-4-(8-chloro-3-((2,2-difluorocyclopropyl)methyl)-[1,2,4]triazole[4,3-a]pyridine-7-yl)benzoate]
- EC50 [3]: 230 nM
- IC50 [2]: 10800 nM
- inhibition at 40 µM [2, 5]: 82.5%

Structure (SMILES): FC1(F)CC1Cc1nnc2c(Cl)c(-c3ccc4c(c3)CCO4)ccn12 (stereo not drawn) [Compound 47, 8-chloro-3-((2,2-difluorocyclopropyl)methyl)-7-(2,3-benzodihydrofuran-5-yl)-[1,2,4]triazole[4,3-a]pyridine]
- EC50 [3]: 215 nM
- IC50 [2]: 4880 nM
- inhibition at 40 µM [2, 5]: 96.4%

Structure (SMILES): CN1C(=O)CN=C(c2ccccc2)c2cc(Cl)ccc21 [Diazepam, reference compound]
- anti-anxiety effect in the open field experiment ([4]; mouse, in vivo): very significant anti-anxiety effect

Structure (SMILES): CNCCC(Oc1ccc(C(F)(F)F)cc1)c1ccccc1 (stereo not drawn) [Fluoxetine, reference compound]
- non-movement time (%) Mean ± SEM [1]: 33.98 ± 9.84 %

Structure (SMILES): COc1ccccc1Oc1ccc(N(Cc2cccnc2)S(=O)(=O)CC(F)(F)F)cc1 [LY487379, reference compound]
- EC50 [3]: 230 nM
